Measurements reported in patent US12390446B2 (RESEARCH TRIANGLE INSTITUTE, priority 2017, dated 2025).
Read-outs that look alike come from different tables or passages of the source. Blank lines part the entries; values can stand above or below the molecule they belong to.

How the values were obtained:
[1] = target: T1, NPFF2 receptor (human NPFFR2 in CHO-RD-HGA16 cells) (Homo sapiens, UniProt Q9Y5X5); experiment: Calcium mobilization functional Ke assay, NPFF2; assay type: cell-based; details: for Kb: read-out: NPFF2 Ke
T1 construct: expressed in transfected cells

[2] = target: T2, NPFF1 receptor (human NPFFR1 in CHO-RD-HGA16 cells) (Homo sapiens, UniProt Q9GZQ6); experiment: Calcium mobilization functional Ke assay, NPFF1; assay type: cell-based; details: for Kb: read-out: NPFF1 Ke; for type of antagonism in curve-shift assays: standard incubation, competitive profile with longer incubations
T2 construct: expressed in transfected cells

[3] = Table 1, mean ± SEM, apparent dissociation constant vs NPFF
[4] = Table 1, footnote c: pre-incubation of antagonist and test compound 45 min or 1 hr
[5] = Table 2, 4-(4-methylthio)benzylamino series, mean ± SEM

T2 sequence (Q9GZQ6 whole entry): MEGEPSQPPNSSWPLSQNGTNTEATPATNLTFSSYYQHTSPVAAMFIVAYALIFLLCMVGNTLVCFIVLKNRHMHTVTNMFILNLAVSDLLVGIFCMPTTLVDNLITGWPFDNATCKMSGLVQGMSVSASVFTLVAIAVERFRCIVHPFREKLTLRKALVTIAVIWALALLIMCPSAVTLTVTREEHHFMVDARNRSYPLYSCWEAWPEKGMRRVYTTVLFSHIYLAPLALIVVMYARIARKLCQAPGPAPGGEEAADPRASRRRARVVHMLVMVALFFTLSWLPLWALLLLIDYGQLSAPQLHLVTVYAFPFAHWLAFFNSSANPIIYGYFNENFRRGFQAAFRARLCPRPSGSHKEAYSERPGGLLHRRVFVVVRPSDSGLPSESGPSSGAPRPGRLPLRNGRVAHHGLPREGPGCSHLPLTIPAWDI
T1 sequence (Q9Y5X5 whole entry): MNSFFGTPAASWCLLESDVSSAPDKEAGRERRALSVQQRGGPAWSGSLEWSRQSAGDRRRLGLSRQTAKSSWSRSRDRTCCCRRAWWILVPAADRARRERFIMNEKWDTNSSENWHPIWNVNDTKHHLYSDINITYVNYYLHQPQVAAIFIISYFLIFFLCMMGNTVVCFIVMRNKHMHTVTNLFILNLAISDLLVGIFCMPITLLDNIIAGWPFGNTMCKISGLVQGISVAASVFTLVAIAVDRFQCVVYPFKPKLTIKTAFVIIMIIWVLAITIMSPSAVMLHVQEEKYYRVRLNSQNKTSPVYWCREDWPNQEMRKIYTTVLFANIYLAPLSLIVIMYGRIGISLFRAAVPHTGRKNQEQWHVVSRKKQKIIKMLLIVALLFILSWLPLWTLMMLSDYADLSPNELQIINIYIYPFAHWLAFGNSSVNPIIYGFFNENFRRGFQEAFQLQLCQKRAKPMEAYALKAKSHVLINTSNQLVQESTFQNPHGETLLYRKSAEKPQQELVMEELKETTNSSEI

Kb ([1]; Table 4, mean ± SEM): 3.94 µM
Kb ([2]; Table 4, mean ± SEM): 490 ± 70 nM
Compound: COc1ccc(CN[C@H]2C[C@@H](C(=O)NCCc3ccccc3)N(Cc3ccccc3C)C2)cc1 [Compound 82, (2S,4S)-4-{[(4-Methoxyphenyl)methyl]amino}-1-[(2-methylphenyl)methyl]-N-(2-phenylethyl)pyrrolidine-2-carboxamide]

Kb [2, 3]: 1960 nM
Compound: COc1ccc(CN[C@H]2C[C@@H](C(=O)NCCN3CCOCC3)N(Cc3ccccc3Cl)C2)cc1 [Compound 20, (2S,4S)-1-[(2-Chlorophenyl)methyl]-4-{[(4-methoxyphenyl)methyl]amino}-N-[2-(morpholin-4-yl)ethyl]pyrrolidine-2-carboxamide]

Kb ([1]; Table 4, mean ± SEM): 5.11 µM
Kb ([2]; Table 4, mean ± SEM): 1230 nM
Compound: COc1ccc(CN[C@H]2C[C@@H](C(=O)NCCc3ccccc3)N(Cc3ccccc3OC)C2)cc1 [Compound 79, (2S,4S)-1-[(2-Methoxyphenyl)methyl]-4-{[(4-methoxyphenyl)methyl]amino}-N-(2-phenylethyl)pyrrolidine-2-carboxamide]

Kb ([1]; Table 3, mean ± SEM): 3.15 µM
Kb ([2]; Table 3, mean ± SEM): 1920 nM
Compound: COc1ccc(CN[C@H]2C[C@@H](C(=O)NCCc3ccc([N+](=O)[O-])cc3)N(Cc3ccccc3Cl)C2)cc1OC [Compound 60, (2S,4S)-1-[(2-Chlorophenyl)methyl]-4-{[(3,4-dimethoxyphenyl)methyl]amino}-N-[2-(4-nitrophenyl)ethyl]pyrrolidine-2-carboxamide]

Kb [2, 4]: > 10000 nM
Compound: CCCCCCCCCCNC(=O)[C@@H]1C[C@H](NCc2ccc(OC)cc2)CN1Cc1ccccc1Cl [Compound 19, (2S,4S)-1-[(2-Chlorophenyl)methyl]-N-decyl-4-{[(4-methoxyphenyl)methyl]amino}pyrrolidine-2-carboxamide]

NPFF2 antagonist activity ([1]; at 10 μM): inactive
NPFF1 antagonist activity ([2]; at 10 μM): inactive
Compound: CNC(=O)[C@@H]1C[C@H](NCc2ccc(OC)cc2)CN1Cc1ccccc1Cl [Compound 10, (2S,4S)-1-[(2-Chlorophenyl)methyl]-4-{[(4-methoxyphenyl)methyl]amino}-N-methylpyrrolidine-2-carboxamide]

Kb ([1]; Table 3, mean ± SEM): 6.38 µM
Kb ([2]; Table 3, mean ± SEM): 2060 nM
Compound: O=C(NCCc1ccc([N+](=O)[O-])cc1)[C@@H]1C[C@H](NCc2ccc(C(F)(F)F)cc2)CN1Cc1ccccc1Cl [Compound 62, (2S,4S)-1-[(2-Chlorophenyl)methyl]-N-[2-(4-nitrophenyl)ethyl]-4-({[4-(trifluoromethyl)phenyl]methyl}amino)pyrrolidine-2-carboxamide]

Kb ([1]; Table 4, mean ± SEM): 5.36 µM
Kb ([2]; Table 4, mean ± SEM): 9020 nM
Compound: COc1ccc(CN[C@H]2C[C@@H](C(=O)NCCc3ccccc3)N(Cc3ccc(OC)c(OC)c3)C2)cc1 [Compound 81, (2S,4S)-1-[(3,4-Dimethoxyphenyl)methyl]-4-{[(4-methoxyphenyl)methyl]amino}-N-(2-phenylethyl)pyrrolidine-2-carboxamide]

Kb ([1]; Table 3, mean ± SEM): > 10 µM
Kb ([2]; Table 3, mean ± SEM): 6120 nM
Compound: CCCCN[C@H]1C[C@@H](C(=O)NCCc2ccc([N+](=O)[O-])cc2)N(Cc2ccccc2Cl)C1 [Compound 53, (2S,4S)-4-(Butylamino)-1-[(2-chlorophenyl)methyl]-N-[2-(4-nitrophenyl)ethyl]pyrrolidine-2-carboxamide]

Kb [2, 3]: 1670 nM
NPFF1 Ke ([2]; calcium mobilization assay): 1,670 nM
Compound: COc1ccc(CN[C@H]2C[C@@H](C(=O)NCCc3ccc(C(F)(F)F)cc3)N(Cc3ccccc3Cl)C2)cc1 [Compound 36, (2S,4S)-1-[(2-Chlorophenyl)methyl]-4-{[(4-methoxyphenyl)methyl]amino}-N-{2-[4-(trifluoromethyl)phenyl]ethyl}pyrrolidine-2-carboxamide]

Kb ([1]; Table 4, mean ± SEM): > 10 µM
Kb ([2]; Table 4, mean ± SEM): 1860 nM
Compound: COc1ccc(CN[C@H]2C[C@@H](C(=O)NCCc3ccccc3)N(Cc3ccc4c(c3)OCO4)C2)cc1 [Compound 88, (2S,4S)-1-(2H-1,3-Benzodioxol-5-ylmethyl)-4-{[(4-methoxyphenyl)methyl]amino}-N-(2-phenylethyl)pyrrolidine-2-carboxamide]

NPFF2 Ke ([1]; calcium mobilization assay): 7,250 nM
NPFF1 Ke ([2]; calcium mobilization assay): 1,620 nM
Compound: CCNC(=O)[C@@H]1C[C@H](NCc2ccc(SC)cc2)CN1Cc1ccccc1Cl [Compound 1]

Kb [2, 3]: 1820 nM
NPFF1 Ke ([2]; calcium mobilization assay): 1,820 nM
Compound: COc1ccc(CN[C@H]2C[C@@H](C(=O)NCCc3ccncc3)N(Cc3ccccc3Cl)C2)cc1 [Compound 37, (2S,4S)-1-[(2-Chlorophenyl)methyl]-4-{[(4-methoxyphenyl)methyl]amino}-N-[2-(pyridin-4-yl)ethyl]pyrrolidine-2-carboxamide]

Continued, molecule first:

Compound: CCCN[C@H]1C[C@@H](C(=O)NCCc2ccc([N+](=O)[O-])cc2)N(Cc2ccccc2Cl)C1 [Compound 52]
Kb ([1]; Table 3, mean ± SEM): > 10 µM
Kb ([2]; Table 3, mean ± SEM): 5160 nM

Compound: O=C(NCCc1ccc([N+](=O)[O-])cc1)[C@@H]1C[C@H](NCCc2ccccc2)CN1Cc1ccccc1Cl [Compound 58]
Kb ([1]; Table 3, mean ± SEM): 1.13 µM
Kb ([2]; Table 3, mean ± SEM): 1150 nM

Compound: COc1ccc(CN[C@H]2C[C@@H](C(=O)NCCCc3ccccc3)N(Cc3ccccc3Cl)C2)cc1 [Compound 25, (2S,4S)-1-[(2-Chlorophenyl)methyl]-4-{[(4-methoxyphenyl)methyl]amino}-N-(3-phenylpropyl)pyrrolidine-2-carboxamide]
Kb [1, 4]: 2.6 µM
Kb [2]: > 10000 nM

Compound: CSc1ccc(CN[C@H]2C[C@@H](C(=O)NCCc3ccccc3)N(Cc3ccccc3Cl)C2)cc1 [Compound 45, (2S,4S)-1-[(2-Chlorophenyl)methyl]-4-{[(4-(methylthio)phenyl)methyl]amino}-N-(2-phenylethyl)pyrrolidine-2-carboxamide]
Kb [1, 5]: 3.7 µM
Kb [2, 5]: 530 ± 80 nM
Kb ([2]; calcium mobilization assay): 530 nM

Compound: CCN(CC)C(=O)[C@@H]1C[C@H](NCc2ccc(OC)cc2)CN1Cc1ccccc1Cl [Compound 40, (2S,4S)-1-[(2-Chlorophenyl)methyl]-N,N-diethyl-4-{[(4-methoxyphenyl)methyl]amino}pyrrolidine-2-carboxamide]
Kb [1, 3]: 4.93 µM
Kb [2, 3]: 2900 nM

Compound: COc1ccc(CN[C@H]2C[C@@H](C(=O)NCc3ccccc3)N(Cc3ccccc3Cl)C2)cc1 [Compound 23, (2S,4S)—N-Benzyl-1-[(2-chlorophenyl)methyl]-4-{[(4-methoxyphenyl)methyl]amino}pyrrolidine-2-carboxamide]
Kb [1, 4]: 2.01 µM
Kb [2, 4]: 780 ± 80 nM
type of antagonism in curve-shift assays [2]: insurmountable antagonism

Compound: COc1cccc(CN[C@H]2C[C@@H](C(=O)NCCc3ccc([N+](=O)[O-])cc3)N(Cc3ccccc3Cl)C2)c1 [Compound 59, (2S,4S)-1-[(2-Chlorophenyl)methyl]-4-{[(3-methoxyphenyl)methyl]amino}-N-[2-(4-nitrophenyl)ethyl]pyrrolidine-2-carboxamide]
Kb ([1]; Table 3, mean ± SEM): 2.82 µM
Kb ([2]; Table 3, mean ± SEM): 1390 nM

Compound: COc1ccc(CN[C@H]2C[C@@H](C(=O)N3CCN(c4ccccc4)CC3)N(Cc3ccccc3Cl)C2)cc1 [Compound 42, (3S,5S)-1-[(2-Chlorophenyl)methyl]-N-[(4-methoxyphenyl)methyl]-5-(4-phenylpiperazine-1-carbonyl)pyrrolidin-3-amine]
Kb [1, 4]: 2.08 µM
Kb [2, 4]: 1330 nM
NPFF1 Ke ([2]; calcium mobilization assay): 1,330 nM
type of antagonism in curve-shift assays [2]: insurmountable antagonism

Compound: COc1ccc(CN[C@H]2C[C@@H](C(=O)NCCc3ccccc3)N(Cc3ccccc3)C2)cc1 [Compound 76, (2S,4S)-1-Benzyl-4-{[(4-methoxyphenyl)methyl]amino}-N-(2-phenylethyl)pyrrolidine-2-carboxamide]
Kb ([1]; Table 4, mean ± SEM): > 10 µM
Kb ([2]; Table 4, mean ± SEM): 1270 nM

Compound: CCCNC(=O)[C@@H]1C[C@H](NCc2ccc(OC)cc2)CN1Cc1ccccc1Cl [Compound 12, (2S,4S)-1-[(2-Chlorophenyl)methyl]-4-{[(4-methoxyphenyl)methyl]amino}-N-propylpyrrolidine-2-carboxamide]
Kb [1, 3]: 9.08 µM
Kb [2, 3]: 2600 nM
Kb ([2]; calcium mobilization assay): 9080 nM

Compound: COc1ccc(CN[C@H]2C[C@@H](C(=O)NCCc3ccccc3)N(Cc3ccc(O)cc3)C2)cc1 [Compound 84, (2S,4S)-1-[(4-Hydroxyphenyl)methyl]-4-{[(4-methoxyphenyl)methyl]amino}-N-(2-phenylethyl)pyrrolidine-2-carboxamide]
Kb ([1]; Table 4, mean ± SEM): > 10 µM
Kb ([2]; Table 4, mean ± SEM): > 10000 nM

Compound: CCCCCCNC(=O)[C@@H]1C[C@H](NCc2ccc(OC)cc2)CN1Cc1ccccc1Cl [Compound 18, (2S,4S)-1-[(2-Chlorophenyl)methyl]-4-{[(4-methoxyphenyl)methyl]amino}-N-hexylpyrrolidine-2-carboxamide]
Kb [1, 4]: 1.49 µM
Kb [2, 3]: 820 ± 80 nM

Compound: O=C(NCCc1ccc([N+](=O)[O-])cc1)[C@@H]1C[C@H](NCc2ccc(O)cc2)CN1Cc1ccccc1Cl [Compound 61, (2S,4S)-1-[(2-Chlorophenyl)methyl]-4-{[(4-hydroxyphenyl)methyl]amino}-N-[2-(4-nitrophenyl)ethyl]pyrrolidine-2-carboxamide]
Kb ([1]; Table 3, mean ± SEM): 6.37 µM
Kb ([2]; Table 3, mean ± SEM): 4790 nM

Compound: CCCCCN[C@H]1C[C@@H](C(=O)NCCc2ccc([N+](=O)[O-])cc2)N(Cc2ccccc2Cl)C1 [Compound 54, (2S,4S)-1-[(2-Chlorophenyl)methyl]-N-[2-(4-nitrophenyl)ethyl]-4-(pentylamino) pyrrolidine-2-carboxamide]
Kb ([1]; Table 3, mean ± SEM): > 10 µM
Kb ([2]; Table 3, mean ± SEM): 2480 nM

Compound: CCCCNC(=O)[C@@H]1C[C@H](NCc2ccc(OC)cc2)CN1Cc1ccccc1Cl [Compound 13, (2S,4S)—N-Butyl-1-[(2-chlorophenyl)methyl]-4-{[(4-methoxyphenyl)methyl]amino}pyrrolidine-2-carboxamide]
Kb [2, 3]: 1240 nM

Compound: COc1ccc(CN[C@H]2C[C@@H](C(=O)NCCc3ccc(S(C)(=O)=O)cc3)N(Cc3ccccc3Cl)C2)cc1 [Compound 39, (2S,4S)-1-[(2-Chlorophenyl)methyl]-N-[2-(4-methanesulfonylphenyl)ethyl]-4-{[(4-methoxyphenyl)methyl]amino}pyrrolidine-2-carboxamide]
Kb [2, 3]: 1880 nM
